Measured values as given in patent US12458700B2, “Amine-containing transfection reagents and methods for making and using same” (Life Technologies Corporation, priority 2010, dated 2025).

Test system: CSNK2A1
Test: CSNK2A1 siRNA knockdown by qPCR in Hela, primary cortical neurons and primary hippocampal neurons
Format: cell-based, human, rat
Settings: lipoplex with cholesterol 1:0.5, 30 nM siRNA, 24 h, FIG. 5
Text: Some lipids of the present invention were formulated into lipid compositions, which also comprise cholesterol or DOPE, buffers and ethanol. Animal origin-free cholesterol was purchased from Sigma-Aldrich (St Louis, MO) and DOPE was purchased from Avanti Lipids (Alabaster, AL). Silencer® Select CSNK2A1 siRNA and Silencer® Select negative control siRNA (cat #4390824 siRNA id#s3637 and cat #4390843) having the antisense sequence […] (SEQ ID NO:2) and […] (SEQ ID NO:3), respectively, were resuspended with nuclease-free water to a stock concentration of 50 μM, which were further diluted to meet downstream experiments and is commercially available from Life Technologies (Carlsbad, CA).
For compounds 83 and 67, the dry powder lipids were re-suspended in ethanol at a final concentration of 1 mg/ml and either used as lipid alone (Compound 83) or combined with cholesterol in 1:0.5 ratio (Compound 67). The formulations tested were made as described in Table 3
Primary rat cortex neuronal cells were purchased from GIBCO (Cat. No. A10840) and maintained in Neurobasal™ medium (cat #21103-049) supplemented with 2% B-27® Serum-free (50× cat #17504-044) and 0.5 mM GlutaMAX™ (cat #35050-061). […]

For CCCCCCCCCCCCNC(=O)CNCCCN(CCCCNCCCN(CC(=O)NCCCCCCCCCCCC)CC(=O)NCCCCCCCCCCCC)CC(=O)NCCCCCCCCCCCC [Compound 67], the “relative percent of CSNK2A1 remaining activity normalized to negative control” value was “do possess activity in vitro”.
